This passage reports inhibition and Activity results from ChEMBL document CHEMBL5543131, “Discovery of Highly Potent Solute Carrier 13 Member 5 (SLC13A5) Inhibitors for the Treatment of Hyperlipidemia” (J Med Chem, 2024).

Active and inactive are the calls of the source. No cut-off for these calls is given here.

Test [1] deals with T1, Solute carrier family 13 member 2 (Homo sapiens) (UniProt Q13183).
T1 sequence (whole entry): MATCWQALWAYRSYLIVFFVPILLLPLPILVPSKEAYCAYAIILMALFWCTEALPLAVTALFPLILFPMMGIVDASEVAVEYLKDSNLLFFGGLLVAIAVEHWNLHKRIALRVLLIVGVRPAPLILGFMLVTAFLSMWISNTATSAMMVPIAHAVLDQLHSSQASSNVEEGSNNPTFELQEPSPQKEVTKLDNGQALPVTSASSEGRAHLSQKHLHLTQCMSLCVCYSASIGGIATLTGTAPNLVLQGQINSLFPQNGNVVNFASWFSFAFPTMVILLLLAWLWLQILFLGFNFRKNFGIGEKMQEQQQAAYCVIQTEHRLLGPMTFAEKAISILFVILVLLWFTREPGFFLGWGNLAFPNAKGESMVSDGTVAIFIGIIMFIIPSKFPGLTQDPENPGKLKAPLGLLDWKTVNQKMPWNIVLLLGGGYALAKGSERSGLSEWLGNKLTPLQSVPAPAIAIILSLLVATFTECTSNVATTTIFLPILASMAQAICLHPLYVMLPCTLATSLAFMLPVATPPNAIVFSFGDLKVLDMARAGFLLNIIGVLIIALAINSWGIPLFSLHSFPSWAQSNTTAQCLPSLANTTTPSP
As to the kind of experiment: Inhibition of NaDC1 (unknown origin) citrate transport activity.

Test [2] has as its target T2, Na(+)/dicarboxylate cotransporter 3 (Homo sapiens) (UniProt Q8WWT9).
T2 sequence (whole entry): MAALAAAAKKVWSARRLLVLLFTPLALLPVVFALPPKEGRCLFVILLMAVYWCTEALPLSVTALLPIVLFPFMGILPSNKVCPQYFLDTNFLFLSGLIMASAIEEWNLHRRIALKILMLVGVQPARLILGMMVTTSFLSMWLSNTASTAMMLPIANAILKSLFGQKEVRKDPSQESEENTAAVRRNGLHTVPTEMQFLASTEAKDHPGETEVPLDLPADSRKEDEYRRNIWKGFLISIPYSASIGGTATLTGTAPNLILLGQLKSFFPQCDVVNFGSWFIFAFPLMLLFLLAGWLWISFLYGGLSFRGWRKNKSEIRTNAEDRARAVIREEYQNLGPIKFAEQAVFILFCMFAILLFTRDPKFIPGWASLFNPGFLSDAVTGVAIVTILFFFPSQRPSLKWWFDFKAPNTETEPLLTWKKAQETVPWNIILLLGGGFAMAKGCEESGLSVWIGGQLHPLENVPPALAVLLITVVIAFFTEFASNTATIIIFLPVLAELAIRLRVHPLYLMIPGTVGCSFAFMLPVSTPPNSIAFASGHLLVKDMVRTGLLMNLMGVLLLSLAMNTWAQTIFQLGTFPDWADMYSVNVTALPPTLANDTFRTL
The test can be described thus: Inhibition of NaDC3 (unknown origin) citrate transport activity.

Test [3] has as its system AML12. As to the kind of experiment: Downregulation of ACLY mRNA expression in oleic and palmitic acid induced mouse AML12 cells by RT-qPCR analysis. Format: functional, cell-based. The note with it: dose 3-30 µM. In general terms: Quantitative PCR measures a nucleic acid by following its amplification.
The subject of test [4] is AML12. The test can be described thus: Effect on SCL13A5 mRNA expression in oleic acid and palmitic acid induced mouse AML12 cells at 3 to 30 uM by RT-qPCR analysis. Format: functional, cell-based. Particulars: dose 3-30 µM.
Test [5] concerns AML12. The test can be described thus: Lipid lowering effect on PCN-induced lipid accumulation in mouse AML12 cells assessed as decrease in ACC1 mRNA expression level at 3 to 30 uM preincubated with compound for 30 mins followed by PCN addition and measured after 24 hrs by RT-qPCR analysis. Format: functional, cell-based. Particulars: dose 3-30 µM, time 24.5 hrs.
Test [6] deals with AML12. As to the kind of experiment: Lipid lowering effect on PCN-induced lipid accumulation in mouse AML12 cells assessed as decrease in HMGCR mRNA expression level at 3 to 30 uM preincubated with compound for 30 mins followed by PCN addition and measured after 24 hrs by RT-qPCR analysis. The class given is functional, cell-based. The note with it: dose 3-30 µM, time 24.5 hrs.

In test [7] the test system is AML12. As to the kind of experiment: Effect on SCL13A5 mRNA expression in PCN-induced mouse AML12 cells at 3 to 30 uM preincubated with compound for 30 mins followed by PCN addition and measured after 24 hrs by RT-qPCR analysis. Format: functional, cell-based. The note with it: dose 3-30 µM, time 24.5 hrs.
In test [8] the test system is AML12. As to the kind of experiment: Lipid lowering effect on PCN-induced lipid accumulation in mouse AML12 cells assessed as decrease in ACLY mRNA expression level at 3 to 30 uM preincubated with compound for 30 mins followed by PCN addition and measured after 24 hrs by RT-qPCR analysis. Format: functional, cell-based. The note with it: dose 3-30 µM, time 24.5 hrs.

The next test deals with Hepatocyte. As to the kind of experiment: Lipid lowering effect on PCN-induced lipid accumulation in mouse Primary hepatocyte assessed as decrease in FASN mRNA expression level at 3 to 30 uM by RT-qPCR analysis. Format: functional, cell-based. The note with it: dose 3-30 µM.
Test [9] has as its system HepG2. The test can be described thus: Lipid lowering effect on PCN-induced lipid accumulation in human HepG2 cells assessed as decrease in intracellular triglyceride level. Particulars: dose 3-30 µM. The class given is functional, cell-based.
Test [10] concerns HepG2. As to the kind of experiment: Lipid lowering effect on PCN-induced lipid accumulation in human HepG2 cells assessed as decrease in intracellular total cholesterol level. Format: functional, cell-based. The note with it: dose 3-30 µM.
The test system of test [11] is HepG2. As to the kind of experiment: Lipid lowering effect on PCN-induced lipid accumulation in human HepG2 cells assessed as decrease in ACC1 mRNA expression level at 3 to 30 uM by RT-qPCR analysis. Format: functional, cell-based. The note with it: dose 3-30 µM.
Test [12] concerns Mus musculus. The test can be described thus: Lipid lowering activity in starvation-induced hyperlipidemic male C57BL/6J mouse model assessed as decrease in NEFA level in liver at 10 to 30 mg/kg, ip starved for 48 hrs followed by compound administration and measured after 2 hrs. Format: functional, organism-based. Particulars: dose 10-30 mg/kg.
The subject of test [13] is Mus musculus. As to the kind of experiment: Lipid lowering activity in starvation-induced hyperlipidemic male C57BL/6J mouse model assessed as decrease in triglyceride level in plasma at 10 to 30 mg/kg, ip starved for 48 hrs followed by compound administration and measured after 2 hrs. Particulars: dose 10-30 mg/kg. The class given is functional, organism-based.
The test system of test [14] is Mus musculus. As to the kind of experiment: Lipid lowering activity in starvation-induced hyperlipidemic male C57BL/6J mouse model assessed as decrease in NEFA level in plasma at 10 to 30 mg/kg, ip starved for 48 hrs followed by compound administration and measured after 2 hrs. Particulars: dose 10-30 mg/kg. The class given is functional, organism-based.
Test [15] relates to Mus musculus. The test can be described thus: In vivo inhibition of SLC13A5 in starvation-induced hyperlipidemic male C57BL/6J mouse model assessed as increase in plasma citrate level at 30 mg/kg, ip starved for 48 hrs followed by compound administration and measured after 2 hrs. Format: functional, organism-based.
Test [16] deals with Mus musculus. The test can be described thus: In vivo inhibition of SLC13A5 in starvation-induced hyperlipidemic male C57BL/6J mouse model assessed as decrease in liver citrate level at 30 mg/kg, ip starved for 48 hrs followed by compound administration and measured after 2 hrs. Format: functional, organism-based.
For test [17], the system named is Mus musculus. As to the kind of experiment: Lipid lowering activity in starvation-induced hyperlipidemic male C57BL/6J mouse model assessed as downregulation of FASN gene expression level starved for 48 hrs followed by oral administration of compound and measured after 2 hrs by RT-qPCR analysis. Particulars: dose 10-30 mg/kg. Format: functional, organism-based.

Test [18] deals with Mus musculus. The test can be described thus: Lipid lowering activity in PCN-induced hyperlipidemic male C57BL/6J mouse model assessed as decrease in plasma triglyceride level at 10 to 30 mg/kg, IG preadministered with compound for 15 to 30 mins followed by PCN administration and measured after 7 days. The class given is functional, organism-based. The note with it: dose 10-30 mg/kg, time 15-10110 min.

In test [19] the test system is Mus musculus. The test can be described thus: Lipid lowering activity in PCN-induced hyperlipidemic male C57BL/6J mouse model assessed as decrease in liver total cholesterol level at 10 to 30 mg/kg, IG preadministered with compound for 15 to 30 mins followed by PCN administration and measured after 7 days. Format: functional, organism-based. Particulars: dose 10-30 mg/kg, time 15-10110 min.

For the compound `O=C(O)CC(O)(CCc1ccc(-c2ccccc2)cc1)C(=O)O` (stereo not given), the inhibition entry in test [1] and in [2] was “inactive” in each case. In addition, the Activity entry in the test on AML12 [3], in the test with HepG2 [9], with HepG2 [10] and in the test on Mus musculus [17] was “Dose-Dependent Effect” throughout. The outcome with AML12 [4] and with AML12 [7] was inactive. Also, the outcome in the test on AML12 [5], in the test on AML12 [6], in the test with AML12 [8], in the test with Hepatocyte, with HepG2 [11] and in the test on Mus musculus [12] was Active. Moreover, the result with Mus musculus [13], with Mus musculus [14], with Mus musculus [18] and with Mus musculus [19] was Active. For the same compound, the inhibition entry in the test with Mus musculus [15] and with Mus musculus [16] was “Active” each time.
